Test results from patent US20030143228A1, “Human telomerase reverse transcriptase as a class-II restricted tumor-associated antigen” (Baylor College of Medicine, priority 2001, published 2003).
Entries after “also recorded” stand apart in the source; their conditions may differ.

B1: clone 35: positive clone of the DU145 tumor retrogen library; ORF encodes a 171 aa hTRT polypeptide (SEQ.ID.NO.4) (nucleic acid)
DNA: ATCCCGCAGGGCTCCATCCTCTCCACGCTGCTCTGCAGCCTGTGCTACGGCGACATGGAGAACAAGCTGTTTGCGGGGATTCGGCGGGACGGGCTGCTCCTGCGTTTGGTGGATGATTTCTTGTTGGTGACACCTCACCTCACCCACGCGAAAACCTTCCTCAGGACCCTGGTCCGAGGTGTCCCTGAGTATGGCTGCGTGGTGAACTTGCGGAAGACAGTGGTGAACTTCCCTGTAGAAGACGAGGCCCTGGGTGGCACGGCTTTTGTTCAGATGCCGGCCCACGGCCTATTCCCCTGGTGCGGCCTGCTGCTGGATACCCGGACCCTGGAGGTGCAGAGCGACTACTCCAGCTATGCCCGGACCTCCATCAGAGCCAGTCTCACCTTCAACCGCGGCTTCAAGGCTGGGAGGAACATGCGTCGCAAACTCTTTGGGGTCTTGCGGCTGAAGTGTCACAGCCTGTTTCTGGATTTGCAGGTGAACAGCCTCCAGACGGTGTGCACCAACATCTACAAG
modifications: Human
B2: clone 8: positive clone of the DU145 tumor retrogen library; ORF encodes a 291 aa hTRT polypeptide (SEQ.ID.NO.3) (nucleic acid)
DNA: ATCCTGGCCAAGTTCCTGCACTGGCTGATGAGTGTGTACGTCGTCGAGCTGCTCAGGTCTTTCTTTTATGTCACGGAGACCACGTTTCAAAAGAACAGGCTCTTTTTCTACCGGAAGAGTGTCTGGAGCAAGTTGCAAAGCATTGGAATCAGACAGCACTTGAAGAGGGTGCAGCTGCGGGAGCTGTCGGAAGCAGAGGTCAGGCAGCATCGGGAAGCCAGGCCCGCCCTGCTGACGTCCAGACTCCGCTTCATCCCCAAGCCTGACGGGCTGCGGCCGATTGTGAACATGGACTACGTCGTGGGAGCCAGAACGTTCCGCAGAGAAAAGAGGGCCGAGCGTCTCACCTCGAGGGTGAAGGCACTGTTCAGCGTGCTCAACTACGAGCGGGCGCGGCGCCCCGGCCTCCTGGGCGCCTCTGTGCTGGGCCTGGACGATATCCACAGGGCCTGGCGCACCTTCGTGCTGCGTGTGCGGGCCCAGGACCCGCCGCCTGAGCTGTACTTTGTCAAGGTGGATGTGACGGGCGCGTACGACACCATCCCCCAGGACAGGCTCACGGAGGTCATCGCCAGCATCATCAAACCCCAGAACACGTACTGCGTGCGTCGGTATGCCGTGGTCCAGAAGGCCGCCCATGGGCACGTCCGCAAGGCCTTCAAGAGCCACGTCTCTACCTTGACAGACCTCCAGCCGTACATGCGACAGTTCGTGGCTCACCTGCAGGAGACCAGCCCGCTGAGGGATGCCGTCGTCATCGAGCAGAGCTCCTCCCTGAATGAGGCCAGCAGTGGCCTCTTCGACGTCTTCCTACGCTTCATGTGCCACCACGCCGTGCGCATCAGGGGCAAGTCCTACGTCCAGTGCCAGGGG
modifications: Human

Assays:
Format in all cases: cell-based, human
[1] = test system: Donor's peripheral blood mononuclear cells (PBMCs); test: Peptide T-cell proliferation assay with donor PBMC; settings: peptide 20 μg/ml; positive if cpm at least 2.5 times PBMC without peptide
Protocol: Donor's peripheral blood mononuclear cells (PBMCs) were plated in 96-well plates (Costar) at 200,000 cells/well in AIM-V media (Gibco). Peptides were added into each well at the concentration of 20 μg/ml. After a week of incubation, the culture medium was removed and cells were resuspended in AIM-V media, seeded onto test plates and re-stimulated with autologous irradiated (2,000-6,000 rads) PBMC pulsed with the same peptides used in the primary stimulation (20 μg/ml). On day 2 of the re-stimulation, [^3H]-thymidine (1 uCi/well) was added to the test plates, and its incorporation by T-cells was measured on day 3. […] T-cell clones were established from positive T-cell lines by limiting dilution.
Because Th cells generally prefer to recognize peptides of about 15 residues in length, ten predicted peptides corresponding to promiscuous binding motifs of 15 mer or longer were synthesized and purified (Table 2). Human T-cell responses to these peptides were assessed by isolating PBMC from HLA-typed healthy donors with HLA-DR1, DR3, DR15, or other alleles and seeding them into 96-well plates that were subsequently stimulated with each peptide. After a week of stimulation, the cultures were tested for their capacity to respond to the peptides presented by autologous PBMC.

[2] = test system: peptide-specific CD4+ T-cell clones; test: Specificity and MHC restriction of peptide-specific T-cell clones (antibody blocking)
Protocol: The T916-positive T-cell clone, T631-positive T-cell or T672-positive T-cell (2×10^4 cells/well) were re-stimulated with autologous PBMC-derived DC (1×10^3/well) (Zhou et al., 1996) pulsed with T916, T631, T672 or irrelevant 15-mer peptides derived from HER-2 (SEQ.ID.NO.78, LSTDVGSCTLVCPLH) and EBV (SEQ.ID.NO.79, AYFMVFLQTHIFAEV) at the same concentration of 20 μg/ml in the presence of anti-HLA-DR (G46.4), anti-HLA-ABC (class I, G46.2.6), anti-CD4, or anti-CD8 (20 μg/ml, BD PharMingen). 48-72 hr later, GM-CSF release and [^3H]-thymidine incorporation of the T-cells were measured.
Further, antibody blocking assays were used to test whether the T-cell responses to peptides were MHC class II-restricted. […] Flow cytometric analysis of the responses to T-cell clones (FIG. 14A-FIG. 14F) confirmed clones were CD4-positive and CD 8-negative.

[3] = test system: peptide-specific CD4+ T-cell clones; test: Peptide titration of T-cell clones; settings: autologous PBMCs
Protocol: To evaluate the avidity of hTRT916 and hTRT672 T-cell clones for their ligands, peptide titration curves were generated with autologous PBMCs. The maximal cell proliferation of the hTRT916 T-cell clone was obtained at a peptide concentration of 10 μg/ml, compared with only at a peptide concentration of 1 μg/ml for the hTRT672 T-cell clone (FIG. 7).
Yet further, the avidity of the hTRT631 T-cell clone for its ligand was also evaluated. Peptide titration curves were generated with autologous PBMCs. The half maximal cell proliferation of the hTRT631 T-cell clone was obtained at a peptide concentration of 0.1 μg/ml (FIG. 8).
The effectiveness of antitumor immunotherapy based on CD8+ and CD4+ T-cells depends on the ability of the latter to recognize naturally processed antigen presented by APC. This property depends in turn on correct processing of the epitope in the MHC class II pathway and the avidity of the epitope for its MHC/TCR-complex (Kobayashi, 2000). To determine whether the newly identified peptides were naturally processed antigens, the avidity of the specific T-cell clones for their ligands was evaluated. Peptide titration curves were generated with autologous DC as APC. For peptides hTRT631, hTRT766, hTRT787, the peptide concentrations required to obtain half of the maximal proliferation exceeded 1.0 μM (FIG. 15A-FIG. 15F).

recombinant hTRT protein = test: T-cell recognition of natively processed hTRT protein presented by autologous DC
Source text: A recombinant hTRT protein and an irrelevant Neu protein were produced and used to pulse PBMC-derived DC. Recombinant hTRT and Neu(extracellular domain)-Fc fusion proteins, were produced in SF9 insect cells by use of a baculovirus expression system (Gibco), purified by affinity binding to Protein A (Sigma), and tested by Western blot analysis with anti-hTRT (Santa Cruz) or anti-Neu (Oncogene) antibodies, respectively.
The T916-specific T-cells, T631-specific T-cells or T672-specific T-cells (2×10^4/well) were stimulated with irradiated autologous PBMC-derived DC (Zhou et al., 1996) (2×10^3/well) pulsed with recombinant hTRT-Fc proteins (1 μg/ml) in the presence or absence of anti-HLA-DR antibodies (20 μg/ml). The T-cell clones were also stimulated with DC pulsed with irrelevant recombinant Neu-Fc proteins (1 μg/ml). Recombinant hTRT Fc fusion proteins and Neu (extracellular domain)-Fc proteins were produced from […], purified with a Protein-A purification kit (Pierce), and confirmed by Western blot analysis with anti-hTRT (Santa Cruz) or anti-Neu (Oncogene) antibodies. 48 hr later, [^3H]-thymidine incorporation of the T-cells was then measured.
The ability of these T-cell clones to recognize naturally processed antigen in the form of recombinant hTRT protein was tested in experiments in which autologous PBMC or DC were used as APC and recombinant hTRT proteins as a source of antigen (FIG. 16).

HLA-DR7+/hTRT+ LCL cells = test: T-cell direct responses to hTRT-positive cells
Protocol: The T-cells (5×10^3/well) were co-cultured with the irradiated HLA-DR7+/hTRT+ LCL cells (1×10^4/well) in the presence or absence of the anti-HLA-DR antibody (20 μg/ml). IFN-γ production of the T-cells was monitored by ELISPOT assay and cell proliferation was measured by [^3H]-thymidine incorporation compared with anti-DR sample.

T-cell clone = test: Flow cytometric analysis of T-cell clones; settings: peptide-specific T-cell clone, anti-CD4-FITC / CD8-PE staining
Source text: The T-cell clone was double-stained with anti-human CD4-FITC and CD8-PE antibodies or isotype controls (mouse IgG-FITC and IgG-PE) (BD PharMingen). The cells were then examined by flow cytometric analysis (Chen et al., 1997). More than 99% of the T-cell population were CD4-positive. Flow cytometric analysis verified that the T-cell clones were exclusively CD4-positive (FIG. 9A and FIG. 9B). Similar results were obtained from four different T916-specific T-cell clones. Taken together, the findings indicate that HLA-DR7-restricted epitopes reside in clones 8 and 35 and induce hTRT-specific human CD4+ T-cell responses.

[4] = test system: T-cells primed by the pool 5-transduced DC; test: DC-based immunogenetic screening of tumor retrogen library, [3H]-thymidine incorporation; settings: T-cells 2×10^5, DC 2×10^4
Protocol: cDNA from the mRNA of prostate tumor cells (DU145) were generated by cDNA synthesis kits (CLONTECH). cDNA with sizes of 400 bp or higher were digested with Sau3A I (Bio-Lab) after fractionation with SizeSep™ 400 columns (Amersham Pharmacia Biotech) and inserted into the BamH I-cut pSBFc-DS. Ligated DNA was then transformed into E. coli, and library quality was confirmed by examining dozens of individual clones with different insert sizes and DNA sequences. Individual colonies were then cultured individually and pooled for the isolation of plasmid DNA. Recombinant retroviral retrogen vectors (pools) were generated by transfection of the plasmid DNA pools into packaging cells with GeneJammer (Stratagene). Two or three days later, the culture medium containing the retroviral vectors was harvested, filtered, and then used for DC transduction or stored at −80° C.
DC-based immunogenetic screening approach was used to identify unknown class II-restricted TAA from a tumor retrogen library.
After several rounds of screening of 12,000 individual clones in the library, two sub-pools (5-VI-C and -D) containing genes capable of stimulating CD4+ T-cells were identified. The 40 individual clones in the sub-pools 5-VI-C and -D were individually transduced into autologous CD34+-derived DC. […]

Row | Molecule | proliferative T-cell responses from the donors' T-cells [1] | response of T-cells to autologous PBMC pulsed with peptide [2] | response of the peptide-specific T-cells to irrelevant peptides ([2]; irrelevant 15-mer peptides (HER-2, EBV/EBNA1) or non-corresponding hTRT peptides, 20 μg/ml) | restriction of T-cell response (antibody blocking) ([2]; peptide-pulsed autologous APC with anti-HLA-DR, anti-HLA class I, anti-HLA-DQ, anti-CD4 or anti-CD8 antibodies) | peptide concentration at maximal cell proliferation of the T-cell clone [3] | epitope classification (naturally processed or cryptic) (recombinant hTRT protein) | response of peptide-specific T-cells to irrelevant Neu protein presented by autologous DC (recombinant hTRT protein; Neu-Fc 1 μg/ml) | recognition of hTRT protein after processing and presentation by autologous APC (recombinant hTRT protein; peptide-specific T-cell clone, DC or PBMC pulsed with recombinant hTRT protein) | response of peptide-specific CD4+ T-cells to hTRT+/DR7+ LCL (HLA-DR7+/hTRT+ LCL cells; IFN-γ ELISPOT and [3H]-thymidine incorporation) | effect of anti-HLA-DR antibody on T-cell response to hTRT+/DR7+ LCL (HLA-DR7+/hTRT+ LCL cells; antibody 20 μg/ml) | response of peptide-specific CD4+ T-cells to hTRT+ LCL (DR3+) (HLA-DR7+/hTRT+ LCL cells; different class II genotype) | T-cell population CD4-positive (T-cell clone) | T-cell response to autologous DC transduced with individual clones [4]
1 | GTAFVQMPAHGLFPW [Peptide T916] | elicited proliferative T-cell responses | dosage-dependent manner | did not respond | both CD4- and HLA-DR-restricted; also recorded: MHC-II restricted epitopes | 10 µg/mL | are processed | did not respond | recognize the hTRT proteins | active proliferation and production of INF-γ | drastically inhibited | did not respond | More than 99% | –
2 | B1 | – | – | – | – | – | – | – | – | – | – | – | – | strong T-cell response
3 | B2 | – | – | – | – | – | – | – | – | – | – | – | – | strong T-cell response
